Source: patent US10736883B2, “Triazole furan compounds as agonists of the APJ receptor” (AMGEN INC., priority 2016, dated 2020)

Target: APJ receptor (Homo sapiens (Human), UniProt P35414)
Assay: [35S]GTPγS binding assay on membranes from CHO cells stably expressing human APJ receptor
Assay type: biochemical
Settings: membranes of CHO cells stably expressing human APJ receptor, means of several independent experiments, read-out: Activity hAPJ SPA EC50 IP
Protocol: The human APJ receptor was cloned by polymerase chain reaction and the gene encoding the receptor was subcloned in pFLAG-CMV™-3 expression vector (Sigma, Saint Louis, Mo. USA) in-house at Amgen. A GTPγS binding assay was performed on membranes prepared from CHO cells stably expressing human APJ receptor. The optimum experimental conditions for the concentrations of GDP, MgCl2, and NaCl in the assay buffer were initially determined. The assay was performed in assay buffer [20 mM HEPES, pH 7.5, 5 mM MgCl2, and 0.1% (w/v) BSA with 200 mM NaCl, 3 μM GDP] and membranes expressing human APJ receptor/well along with WGA PS beads. The reaction was initiated by addition of 0.2 nM [^35S]GTPγS (Perkin Elmer Life and Analytical Sciences, Waltham USA) in the absence or presence of various ligands and incubated at RT for 90 min. Nonspecific binding was determined in the presence of 100 μM GTPγS and was always less than 0.2% of total binding. All the results presented are means of several independent experiments and analyzed by non-linear regression methods using commercially available program Prism (GraphPad, San Diego, Calif.) to obtain EC50 detailed in Table 26.

APJ receptor, sequence (P35414 whole entry): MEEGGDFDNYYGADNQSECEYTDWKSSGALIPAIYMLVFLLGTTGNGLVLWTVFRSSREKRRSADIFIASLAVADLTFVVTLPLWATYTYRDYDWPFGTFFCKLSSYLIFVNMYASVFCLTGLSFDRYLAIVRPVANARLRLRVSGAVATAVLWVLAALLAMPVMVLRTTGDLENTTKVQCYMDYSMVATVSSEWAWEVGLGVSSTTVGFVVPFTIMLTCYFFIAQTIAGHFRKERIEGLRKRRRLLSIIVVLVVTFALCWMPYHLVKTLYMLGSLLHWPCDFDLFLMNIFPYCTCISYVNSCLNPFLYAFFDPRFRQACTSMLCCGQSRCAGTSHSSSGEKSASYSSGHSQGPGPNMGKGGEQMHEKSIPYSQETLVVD

Row | Structure (SMILES) | EC50
1 | COc1cccc(OC)c1-n1c(NS(=O)(=O)[C@@H](CCO)[C@H](C)c2ncc(C)cn2)nnc1-c1ccc(C)o1 (racemic) [Example 77.0] | 0.77 nM
2 | COc1cccc(OC)c1-n1c(NS(=O)(=O)[C@@H](C)Cc2ncc(F)cn2)nnc1-c1ccc(C)o1 (racemic) [Example 94.0, (2S)—N-(4-(2,6-Dimethoxyphenyl)-5-(5-methyl-2-furanyl)-4H-1,2,4-triazol-3-yl)-1-(5-fluoro-2-pyrimidinyl)-2-propanesulfonamide and (2R)—N-(4-(2,6-dimethoxyphenyl)-5-(5-methyl-2-furanyl)-4H-1,2,4-triazol-3-yl)-1-(5-fluoro-2-pyrimidinyl)-2-propanesulfonamide] | 0.17 nM
3 | COc1cccc(OC)c1-n1c(NS(=O)(=O)[C@H](C)[C@@H](O)c2ncc(F)cn2)nnc1-c1ccc(C)o1 (racemic) [Example 96.0, (1R,2S)—N-(4-(2,6-Dimethoxyphenyl)-5-(5-methyl-2-furanyl)-4H-1,2,4-triazol-3-yl)-1-(5-fluoro-2-pyrimidinyl)-1-hydroxy-2-propanesulfonamide and (1S,2R)—N-(4-(2,6-dimethoxyphenyl)-5-(5-methyl-2-furanyl)-4H-1,2,4-triazol-3-yl)-1-(5-fluoro-2-pyrimidinyl)-1-hydroxy-2-propanesulfonamide] | 0.34 nM
4 | COc1cccc(OC)c1-n1c(NS(=O)(=O)[C@@H](C)[C@H](C)c2ncc(F)cn2)nnc1-c1ccc(C)o1 (racemic) [Example 135.0] | 16 nM
5 | COC[C@@H]1CCCC(=O)N1C[C@H](C)S(=O)(=O)Nc1nnc(-c2ccc(C)o2)n1-c1c(OC)cccc1OC (racemic) [Example 151.0] | 0.24 nM
6 | COc1cccc(OC)c1-n1c(NS(=O)(=O)[C@H]2COc3cc(Cl)cnc3C2)nnc1-c1ccco1 (racemic) [Example 181.0, (3R)-7-Chloro-N-(4-(2,6-dimethoxyphenyl)-5-(2-furanyl)-4H-1,2,4-triazol-3-yl)-3,4-dihydro-2H-pyrano[3,2-b]pyridine-3-sulfonamide and (3S)-7-chloro-N-(4-(2,6-dimethoxyphenyl)-5-(2-furanyl)-4H-1,2,4-triazol-3-yl)-3,4-dihydro-2H-pyrano[3,2-b]pyridine-3-sulfonamide] | 5.9 nM
7 | COc1cccc(OC)c1-n1c(NS(=O)(=O)C[C@@](C)(F)c2ncc(C#N)cn2)nnc1-c1ccc(C)o1 (racemic) [Example 229.0, (2S)-2-(5-Cyano-2-pyrimidinyl)-N-(4-(2,6-dimethoxyphenyl)-5-(5-methyl-2-furanyl)-4H-1,2,4-triazol-3-yl)-2-fluoro-1-propanesulfonamide and (2R)-2-(5-cyano-2-pyrimidinyl)-N-(4-(2,6-dimethoxyphenyl)-5-(5-methyl-2-furanyl)-4H-1,2,4-triazol-3-yl)-2-fluoro-1-propanesulfonamide] | 0.39 nM
8 | COc1cccc(OC)c1-n1c(NS(=O)(=O)[C@@H](C)Cc2ncc(F)c(C)n2)nnc1-c1ccco1 (racemic) [Example 234.0, (2S)—N-(4-(2,6-Dimethoxyphenyl)-5-(2-furanyl)-4H-1,2,4-triazol-3-yl)-1-(5-fluoro-4-methyl-2-pyrimidinyl)-2-propanesulfonamide and (2R)—N-(4-(2,6-dimethoxyphenyl)-5-(2-furanyl)-4H-1,2,4-triazol-3-yl)-1-(5-fluoro-4-methyl-2-pyrimidinyl)-2-propanesulfonamide] | 0.54 nM
9 | COc1cccc(OC)c1-n1c(NS(=O)(=O)[C@H](C)[C@@H](OC)c2cn3ccccc3n2)nnc1-c1ccc(C)o1 (racemic) [Example 264.0, (1R,2S)—N-(4-(2,6-Dimethoxyphenyl)-5-(5-methyl-2-furanyl)-4H-1,2,4-triazol-3-yl)-1-imidazo[1,2-a]pyridin-2-yl-1-methoxy-2-propanesulfonamide and (1S,2R)—N-(4-(2,6-dimethoxyphenyl)-5-(5-methyl-2-furanyl)-4H-1,2,4-triazol-3-yl)-1-imidazo[1,2-a]pyridin-2-yl-1-methoxy-2-propanesulfonamide] | 0.167 nM
10 | COc1cccc(OC)c1-n1c(NS(=O)(=O)[C@H](C)[C@@H](O)c2cn3ccccc3n2)nnc1-c1ccc(C)o1 (racemic) [Example 269.0, (1R,2S)—N-(4-(2,6-Dimethoxyphenyl)-5-(5-methyl-2-furanyl)-4H-1,2,4-triazol-3-yl)-1-hydroxy-1-imidazo[1,2-a]pyridin-2-yl-2-propanesulfonamide and (1S,2R)—N-(4-(2,6-dimethoxyphenyl)-5-(5-methyl-2-furanyl)-4H-1,2,4-triazol-3-yl)-1-hydroxy-1-imidazo[1,2-a]pyridin-2-yl-2-propanesulfonamide] | 0.49 nM
11 | COc1cccc(OC)c1-n1c(NS(=O)(=O)[C@H](C)[C@@H](O)c2cn(C)cn2)nnc1-c1ccc(C)o1 (racemic) [Example 283.0, (1R,2S)—N-(4-(2,6-Dimethoxyphenyl)-5-(5-methyl-2-furanyl)-4H-1,2,4-triazol-3-yl)-1-hydroxy-1-(1-methyl-1H-imidazol-4-yl)-2-propanesulfonamide and (1S,2R)—N-(4-(2,6-dimethoxyphenyl)-5-(5-methyl-2-furanyl)-4H-1,2,4-triazol-3-yl)-1-hydroxy-1-(1-methyl-1H-imidazol-4-yl)-2-propanesulfonamide] | 1.4 nM
12 | COc1cccc(OC)c1-n1c(NS(=O)(=O)[C@H](C)[C@@H](O)c2coc(C)n2)nnc1-c1ccc(C)o1 (racemic) [Example 284.0, (1R,2S)—N-(4-(2,6-Dimethoxyphenyl)-5-(5-methyl-2-furanyl)-4H-1,2,4-triazol-3-yl)-1-hydroxy-1-(2-methyl-1,3-oxazol-4-yl)-2-propanesulfonamide and (1S,2R)—N-(4-(2,6-dimethoxyphenyl)-5-(5-methyl-2-furanyl)-4H-1,2,4-triazol-3-yl)-1-hydroxy-1-(2-methyl-1,3-oxazol-4-yl)-2-propanesulfonamide] | 1.6 nM
13 | COc1cccc(OC)c1-n1c(NS(=O)(=O)[C@H](C)[C@H](O)c2cn3ccccc3n2)nnc1-c1ccc(C)o1 (racemic) [Example 285.0, (1R,2R)—N-(4-(2,6-Dimethoxyphenyl)-5-(5-methyl-2-furanyl)-4H-1,2,4-triazol-3-yl)-1-hydroxy-1-imidazo[1,2-a]pyridin-2-yl-2-propanesulfonamide and (1S,2S)—N-(4-(2,6-dimethoxyphenyl)-5-(5-methyl-2-furanyl)-4H-1,2,4-triazol-3-yl)-1-hydroxy-1-imidazo[1,2-a]pyridin-2-yl-2-propanesulfonamide] | 2.5 nM
14 | COc1cccc(OC)c1-n1c(NS(=O)(=O)[C@H](C)[C@@H](O)c2cc3n(n2)CCCO3)nnc1-c1ccc(C)o1 (racemic) [Example 290.0] | 5 nM

The remaining lines, values ahead:

Row | EC50 | Structure (SMILES)
15 | 0.6 nM | COCC[C@@H](Cc1ncc(C)cn1)S(=O)(=O)Nc1nnc(-c2ccc(C)o2)n1-c1c(OC)cccc1OC (racemic) [Example 76.0, (2R)—N-(4-(2,6-dimethoxyphenyl)-5-(5-methyl-2-furanyl)-4H-1,2,4-triazol-3-yl)-4-methoxy-1-(5-methyl-2-pyrimidinyl)-2-butanesulfonamide and (2S)—N-(4-(2,6-dimethoxyphenyl)-5-(5-methyl-2-furanyl)-4H-1,2,4-triazol-3-yl)-4-methoxy-1-(5-methyl-2-pyrimidinyl)-2-butanesulfonamide]
16 | 18 nM | COc1cccc(OC)c1-n1c(NS(=O)(=O)[C@H](C)[C@H](O)c2oc(C)nc2C)nnc1-c1ccc(C)o1 (racemic) [Example 82.0]
17 | 0.51 nM | COc1cccc(OC)c1-n1c(NS(=O)(=O)[C@H](C)[C@@H](O)c2ccc(C#N)c(C)n2)nnc1-c1ccc(C)o1 (racemic) [Example 88.0]
18 | 0.65 nM | COc1cccc(OC)c1-n1c(NS(=O)(=O)C[C@@H](C)c2ncc(F)cn2)nnc1-c1ccc(C)o1 (racemic) [Example 127.0, (S)—N-(4-(2,6-Dimethoxyphenyl)-5-(5-methylfuran-2-yl)-4H-1,2,4-triazol-3-yl)-2-(5-fluoropyrimidin-2-yl)propane-1-sulfonamide and (R)—N-(4-(2,6-dimethoxyphenyl)-5-(5-methylfuran-2-yl)-4H-1,2,4-triazol-3-yl)-2-(5-fluoropyrimidin-2-yl)propane-1-sulfonamide]
19 | 3.6 nM | COc1cccc(OC)c1-n1c(NS(=O)(=O)[C@H]2COC[C@@H]2c2ncc(F)cn2)nnc1-c1ccco1 (racemic) [Example 180.0, (3R,4S)—N-(4-(2,6-Dimethoxyphenyl)-5-(2-furanyl)-4H-1,2,4-triazol-3-yl)-4-(5-fluoro-2-pyrimidinyl)tetrahydro-3-furansulfonamide and (3S,4R)—N-(4-(2,6-dimethoxyphenyl)-5-(2-furanyl)-4H-1,2,4-triazol-3-yl)-4-(5-fluoro-2-pyrimidinyl)tetrahydro-3-furansulfonamide]
20 | 0.25 nM | COc1cccc(OC)c1-n1c(NS(=O)(=O)[C@@H](C)[C@@H](C)c2ncc(F)cn2)nnc1-c1ccco1 (racemic) [Example 218.0, (2R,3R)—N-(4-(2,6-dimethoxyphenyl)-5-(2-furanyl)-4H-1,2,4-triazol-3-yl)-3-(5-fluoro-2-pyrimidinyl)-2-butanesulfonamide and (2S,3S)—N-(4-(2,6-dimethoxyphenyl)-5-(2-furanyl)-4H-1,2,4-triazol-3-yl)-3-(5-fluoro-2-pyrimidinyl)-2-butanesulfonamide]
